The results in this text go back to ChEMBL document CHEMBL1145297, “Synthesis, aerobic cytotoxicity, and radiosensitizing activity of novel 2,4-dinitrophenylamine tethered 5-fluorouracil and hydroxyurea” (Bioorg Med Chem Lett, 2006).

The test system of series [1] is HT-29. The series can be described thus: Cytotoxicity against HT29 cell line without 4 Gy [60Co]-induced irradiation by MTT assay relative to control. In kind it is cell-based. To be noted: human.
Series [2] deals with HT-29. In words: Cytotoxicity against 4 Gy [60Co] irradiated HT29 cell line by MTT assay relative to control. In kind it is cell-based. To be noted: human.
Series [3] has as its system HT-29. The series can be described thus: Radiosensitizing activity in 4 Gy [60Co] irradiated HT29 cells. In kind it is functional, cell-based. To be noted: Homo sapiens.
Series [4] deals with HT-29. In words: Cytotoxicity against HT29 cell line below 2.5 uM. Format: cell-based. To be noted: human.
The test system of series [5] is HT-29. In words: Radiosensitizing activity in 4 Gy [60Co] irradiated HT29 cells at 2.5 uM. In kind it is functional, cell-based. To be noted: Homo sapiens.
Series [6] has as its system HT-29. The series can be described thus: Inhibition of viability in 4 Gy [60Co] irradiated HT29 cells at 10 uM relative to control. Format: functional, Homo sapiens.
The next series concerns SP2. In words: Radiosensitizing activity in SP2 cell line. In kind it is functional, cell-based. To be noted: Mus musculus.

The source made the active and inactive calls. The rule behind the calls is not given here.

As to `NC(=O)NO` [HYDROXYUREA], the Activity in the series on HT-29 [1] and in the series on HT-29 [2] was 25% throughout.

Regarding `O=c1[nH]cc(F)c(=O)[nH]1` [FLUOROURACIL], in the series on HT-29 [3], the result was inactive. For the same compound, the Activity result in the series on HT-29 [4] was “Not Active”; with HT-29 [1], 65%; in the series with HT-29 [2], 65%.

On to `NC(=O)NOCCCNc1ccc([N+](=O)[O-])cc1[N+](=O)[O-]`, for which the values for the Activity entry with HT-29 [1], with HT-29 [6] and in the series on HT-29 [2] were “Not Active”, 60% and “Not Active”, respectively. Also, the result in the series on HT-29 [5] and with SP2 was Active.

Consider `CCCNc1ccc([N+](=O)[O-])cc1[N+](=O)[O-]`, for which the result in the series on HT-29 [3] was inactive. Besides, the Activity in the series with HT-29 [1] and with HT-29 [2] was 20% in each case.

Regarding `O=c1[nH]cc(F)c(=O)n1CCCNc1ccc([N+](=O)[O-])cc1[N+](=O)[O-]`, the Activity result is “Not Active” in the series on HT-29 [1], 60% with HT-29 [6] and “Not Active” in the series on HT-29 [2]. The outcome in the series on HT-29 [5] and in the series on SP2 was Active.
